Patent US20230295197A1, “STAT5 and STAT6 Degraders and Uses Thereof” (REGENTS OF THE UNIVERSITY OF MICHICAN, priority 2022, published 2023)
Where two headings read alike, the source gives them in different places.

Key:
[1] = system: STAT5; experiment: Immunoblotting (Western blot) analysis of STAT5 degradation efficiency of degraders in treated cells; assay type: cell-based
Experimental: Evaluation of the degradation efficiency of degraders may be accomplished by immunoblotting analysis. The representative general protocol is the following:
Cells are maintained in the appropriate culture medium with 10% FBS at 37° C. and an atmosphere of 5% CO2. Cell lines are used within three months of thawing fresh vials. Cells are lysed 1× Cell Lysis Buffer (Cell Signaling Technology, #9803), resolved by SDS-PAGE NuPAGE gel (Thermo Fisher Scientific), and transferred to a PVDF membrane (Millipore). Membranes are blocked using Odyssey TBS Blocker Buffer (LI-COR). IRDye 680RD and 800CW Dye-labeled secondary antibodies (LI-COR) are used. The washed membranes are scanned using Odyssey CLx imager (LI-COR). The intensity of Western blot signaling is quantitated using the Odyssey software. Primary antibodies used are: STAT5 Rabbit mAb (Cell Signaling Technology, #94205), STAT6 Rabbit mAb (Cell Signaling Technology, #5397) and GAPDH mouse monoclonal antibody (Santa Cruz Biotechnology, sc-47724).
To evaluate the degradation efficiency of degraders, immunoblotting analysis was performed. The general protocol is the following.
About 1 million cells for each data point were treated with compounds at indicated concentrations and durations. Untreated and treated cells in cell culture medium were transferred into tubes, followed by centrifugation at 3,000 rpm and 4° C. for 6 min Supernatants were removed from tubes and radioimmunoprecipitation assay (RIPA) lysis buffer supplemented with 1% protease inhibitor cocktail (Fisher Scientific cat. PI87786) and phosphatase inhibitor (Roche cat. 04906837001) were added to tubes containing the remaining cell pellets. The tubes were then left on ice for 30 min and placed in a −80° C. freezer. Subsequently they were thawed in 37° C. water, then centrifuged at 14,000 rpm for 15 min and the cell lysates transferred to new tubes. The concentration of total proteins in each tube was calculated using the Pierce BCA protein Assay kit (cat. 23225). Based on the calculated protein concentration, cell lysates containing approximately the same amount of proteins were transferred to new tubes, then distilled water and 4× Protein Sample Loading Buffer for Western Blots (LI-COR cat. 928-40004) supplemented with 20% of mercaptoethanol (Sigma Aldrich cat. M6250) were added on ice. The cell lysates were then reduced and denatured at 95° C. for 5 min. From the tubes containing cell lysates an equal amount of protein samples (20-40 μg) was loaded into precast 8%, 10%, 4%-12%, or 4%-20% Tris-glycine gels (Novex) filled with Tris-glycine SDS running buffer. After the proteins were resolved, they were transferred onto Immobile-FL PVDF Membrane (Millipore Sigma cat. IPFL00010), using Mini Trans-Blot Electrophoretic Transfer Cell (Bio-Rad 1703930). The membranes were blocked with Intercept Blocking Buffer (LI-COR cat. 927-70001) in LI-COR Western Blot boxes for 1 h at rt. The membranes were washed with 1× Tris-buffered saline-Tween-20 (TBST, 1× solution was made from 20×TBST solution, ThermoFisher Scientific cat. 28360) for 5 min 4 times. The membranes were incubated overnight at 4° C. in Intercept Blocking Buffer supplemented with primary antibodies (normally antibody:buffer 1:1000) and Tween-20. The membranes were washed with TBST for 5 min 4 times and were incubated with Intercept Blocking Buffer supplemented with IRDye 800CE Secondary Antibodies, IRDye 680RD Secondary Antibodies (LI-COR biosciences), Tween-20, and 10% SDS solution, for 1 h at rt. The membranes were then washed with TBST for 5 min 4 times and rinsed with deionized water before drying and scanning with Odyssey Dlx Amazing System (LI-COR). The immunoblots were finally quantified by the software.

[2] = molecular target: T1, STAT6 (Homo sapiens, UniProt P42226); experiment: Immunoblotting (Western blot) analysis of STAT6 degradation efficiency of degraders in treated cells; assay type: cell-based
T1 construct: endogenous in cells; host or cells: MOLM-16, KU-812, SKNO1, MB231, L1236
T1 sequence (P42226 1-847): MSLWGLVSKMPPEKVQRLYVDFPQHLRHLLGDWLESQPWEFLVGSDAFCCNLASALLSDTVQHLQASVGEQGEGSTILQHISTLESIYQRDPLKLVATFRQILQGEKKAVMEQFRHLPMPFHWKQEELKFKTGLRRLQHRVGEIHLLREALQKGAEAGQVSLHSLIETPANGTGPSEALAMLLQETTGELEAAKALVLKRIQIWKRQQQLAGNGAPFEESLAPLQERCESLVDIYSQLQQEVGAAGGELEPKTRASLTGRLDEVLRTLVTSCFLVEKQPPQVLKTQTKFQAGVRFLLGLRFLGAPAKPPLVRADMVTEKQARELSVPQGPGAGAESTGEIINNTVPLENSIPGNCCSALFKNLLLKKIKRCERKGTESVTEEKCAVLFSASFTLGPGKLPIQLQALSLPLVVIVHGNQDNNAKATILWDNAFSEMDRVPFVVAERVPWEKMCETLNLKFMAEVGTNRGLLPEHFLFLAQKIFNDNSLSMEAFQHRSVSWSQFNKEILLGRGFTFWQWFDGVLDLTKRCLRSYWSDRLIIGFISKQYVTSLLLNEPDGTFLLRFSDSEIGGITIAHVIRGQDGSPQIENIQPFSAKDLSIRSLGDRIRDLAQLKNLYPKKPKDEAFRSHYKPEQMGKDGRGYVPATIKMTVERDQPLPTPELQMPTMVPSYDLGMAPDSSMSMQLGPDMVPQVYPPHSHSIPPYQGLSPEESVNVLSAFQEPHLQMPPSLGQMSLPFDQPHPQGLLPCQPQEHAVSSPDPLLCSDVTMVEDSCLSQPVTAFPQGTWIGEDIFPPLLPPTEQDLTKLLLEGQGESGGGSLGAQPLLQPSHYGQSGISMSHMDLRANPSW
Method in brief: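 Cells (~1 million per point) treated with compounds at indicated concentrations and times, lysed in RIPA with protease/phosphatase inhibitors; 20-40 μg protein run on SDS-PAGE and blotted to PVDF. STAT6 or STAT5 rabbit mAbs with GAPDH loading control, IRDye secondaries; near-infrared fluorescence scan, band intensity quantified.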

[3] = KU-812 cells, read-out: DC50 S5 KU-812
[4] = SKNO1 cells, read-out: DC50 S5 SKNO1
[5] = MOLM-16 cells, numeric bound, read-out: DC50 S5 MOLM-16
[6] = L1236 cells, read-out: DC50 S6 L1236
[7] = MOLM-16 cells, class symbols, read-out: DC50 S6 MOLM-16

| Compound | DC50 [1, 4] [µM] | DC50 [2, 7] [µM] | DC50 [2, 6] [µM] | also measured |
| --- | --- | --- | --- | --- |
| CC(C)(C)[C@H](NC(=O)c1cc2cc(C(F)(F)P(=O)(O)O)ccc2s1)C(=O)N1CCC[C@H]1C(=O)N(CCC(=O)NCCCC#Cc1cccc2c1CN(C1CCC(=O)NC1=O)C2=O)c1ccc(-c2cccs2)cc1 (stereo partly drawn) [Compound 648, ((2-(((2S)-1-((2S)-2-((3-((5-(2-(2,6-dioxopiperidin-3-yl)-1-oxoisoindolin-4-yl)pent-4-yn-1-yl)amino)-3-oxopropyl)(4-(thiophen-2-yl)phenyl)carbamoyl)pyrrolidin-1-yl)-3,3-dimethyl-1-oxobutan-2-yl)carbamoyl)benzo[b]thiophen-5-yl)difluoromethyl)phosphonic acid] | 0.1 to 1 |  |  | DC50 [1, 3]: 0.1 to 1 µM; DC50 ([1]; MOLM-16 cells, class symbols, read-out: DC50 S5 MOLM-16): < 0.1 µM |
| CC(C)(C)c1ccc(N(CCC(=O)NCCCC#Cc2cccc3c2CN(C2CCC(=O)NC2=O)C3=O)C(=O)[C@@H]2CCCN2C(=O)[C@@H](NC(=O)c2cc3cc(C(F)(F)P(=O)(O)O)ccc3s2)C(C)(C)C)cc1 (stereo partly drawn) [Compound 647, ((2-(((2S)-1-((2S)-2-((4-(tert-butyl)phenyl)(3-((5-(2-(2,6-dioxopiperidin-3-yl)-1-oxoisoindolin-4-yl)pent-4-yn-1-yl)amino)-3-oxopropyl)carbamoyl)pyrrolidin-1-yl)-3,3-dimethyl-1-oxobutan-2-yl)carbamoyl)benzo[b]thiophen-5-yl)difluoromethyl)phosphonic acid] | 1 to 10 |  |  | DC50 [1, 5]: > 0.3 µM |
| Cc1ncsc1-c1ccc([C@H](C)NC(=O)[C@@H]2C[C@@H](O)CN2C(=O)[C@@H](NC(=O)CCCCCNC(=O)COc2ccc3c(c2)CN(C(=O)[C@@H](NC(=O)c2cc4cc(C(F)(F)P(=O)(O)O)ccc4s2)C(C)(C)C)[C@H](C(=O)N2CCO[C@H](c4ccccc4)C2)C3)C(C)(C)C)cc1 [Compound 465, (difluoro(2-(((S)-1-((S)-7-(2-((6-(((S)-1-((2S,4R)-4-hydroxy-2-(((S)-1-(4-(4-methylthiazol-5-yl)phenyl)ethyl)carbamoyl)pyrrolidin-1-yl)-3,3-dimethyl-1-oxobutan-2-yl)amino)-6-oxohexyl)amino)-2-oxoethoxy)-3-((R)-2-phenylmorpholine-4-carbonyl)-3,4-dihydroisoquinolin-2(1H)-yl)-3,3-dimethyl-1-oxobutan-2-yl)carbamoyl)benzo[b]thiophen-5-yl)methyl)phosphonic acid] |  | > 10 | > 10 |  |
| Cc1ncsc1-c1ccc(CNC(=O)[C@@H]2C[C@@H](O)CN2C(=O)[C@@H](NC(=O)CCCCCCCNC(=O)CO[C@@H]2C[C@@H](C(=O)N(C)c3ccc(Br)cc3)N(C(=O)[C@@H](NC(=O)c3cc4cc(C(F)(F)P(=O)(O)O)ccc4s3)C(C)(C)C)C2)C(C)(C)C)cc1 [Compound 419, ((2-(((S)-1-((2S,4R)-2-((4-bromophenyl)(methyl)carbamoyl)-4-(2-((8-(((S)-1-((2S,4R)-4-hydroxy-2-((4-(4-methylthiazol-5-yl)benzyl)carbamoyl)pyrrolidin-1-yl)-3,3-dimethyl-1-oxobutan-2-yl)amino)-8-oxooctyl)amino)-2-oxoethoxy)pyrrolidin-1-yl)-3,3-dimethyl-1-oxobutan-2-yl)carbamoyl)benzo[b]thiophen-5-yl)difluoromethyl)phosphonic acid] |  |  | > 10 | DC50 ([2]; MB231 cells, read-out: DC50 S6 MB231): > 10 µM |
| CC(C)(C)[C@H](NC(=O)c1cc2cc(C(F)(F)P(=O)(O)O)ccc2s1)C(=O)N1Cc2cc(OCC(=O)NCCC#Cc3ccc4c(c3)C(=O)N(C3CCC(=O)NC3=O)C4=O)ccc2C[C@H]1C(=O)N1CCC[C@H](c2ccccc2)C1 (stereo partly drawn) [Compound 552, ((2-(((2S)-1-((3S)-7-(2-((4-(2-(2,6-dioxopiperidin-3-yl)-1,3-dioxoisoindolin-5-yl)but-3-yn-1-yl)amino)-2-oxoethoxy)-3-((R)-3-phenylpiperidine-1-carbonyl)-3,4-dihydroisoquinolin-2(1H)-yl)-3,3-dimethyl-1-oxobutan-2-yl)carbamoyl)benzo[b]thiophen-5-yl)difluoromethyl)phosphonic acid] |  | > 10 |  |  |

Second part, led by results:

| DC50 [1, 4] [µM] | DC50 [2, 7] [µM] | Compound | DC50 [2, 6] [µM] | also measured |
| --- | --- | --- | --- | --- |
| 1 to 10 |  | CC(C)(C)[C@H](NC(=O)c1cc2cc(C(F)(F)P(=O)(O)O)ccc2s1)C(=O)N1CCC[C@H]1C(=O)N(CCC(=O)NCCCC#Cc1cccc2c1CN(C1CCC(=O)NC1=O)C2=O)c1ccccc1 (stereo partly drawn) [Compound 633, ((2-(((2S)-1-((2S)-2-((3-((5-(2-(2,6-dioxopiperidin-3-yl)-1-oxoisoindolin-4-yl)pent-4-yn-1-yl)amino)-3-oxopropyl)(phenyl)carbamoyl)pyrrolidin-1-yl)-3,3-dimethyl-1-oxobutan-2-yl)carbamoyl)benzo[b]thiophen-5-yl)difluoromethyl)phosphonic acid] |  | DC50 [1, 3]: > 10 µM; DC50 [1, 5]: > 0.3 µM |
|  | < 0.1 | CC(C)(C)[C@H](NC(=O)c1cc2cc(C(F)(F)P(=O)(O)O)ccc2s1)C(=O)N1C[C@@H](OCCCCCCCCC#Cc2cccc3c2CN(C2CCC(=O)NC2=O)C3=O)C[C@H]1C(=O)N1CCO[C@H](c2ccccc2)C1 (stereo partly drawn) [Compound 586, ((2-(((2S)-1-((2S,4S)-4-((10-(2-(2,6-dioxopiperidin-3-yl)-1-oxoisoindolin-4-yl)dec-9-yn-1-yl)oxy)-2-((R)-2-phenylmorpholine-4-carbonyl)pyrrolidin-1-yl)-3,3-dimethyl-1-oxobutan-2-yl)carbamoyl)benzo[b]thiophen-5-yl)difluoromethyl)phosphonic acid] | 1 to 10 |  |
|  | > 10 | CC(C)(C)[C@H](NC(=O)c1cc2cc(C(F)(F)P(=O)(O)O)ccc2s1)C(=O)N1C[C@@H](OCC(=O)NCCCCCCCCC#Cc2ccc3c(c2)C(=O)N(C2CCC(=O)NC2=O)C3=O)C[C@H]1C(=O)N1CCO[C@H](c2ccccc2)C1 (stereo partly drawn) [Compound 490, ((2-(((2S)-1-((2S,4S)-4-(2-((10-(2-(2,6-dioxopiperidin-3-yl)-1,3-dioxoisoindolin-5-yl)dec-9-yn-1-yl)amino)-2-oxoethoxy)-2-((R)-2-phenylmorpholine-4-carbonyl)pyrrolidin-1-yl)-3,3-dimethyl-1-oxobutan-2-yl)carbamoyl)benzo[b]thiophen-5-yl)difluoromethyl)phosphonic acid] |  |  |
